Data reported in patent US6472348B1, “Pyridone derivatives and herbicides” (Kumiai Chemical Industry Co., Ltd., priority 1996, dated 2002).

Tests used:
Format in all cases: in vivo
pale smartweed (Po) [1] = experiment: Test Example 5: crop plant selectivity by upland field soil treatment (wheat), herbicidal effects; design: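 grade of growth control; 5 = at least 90%; 4 = 70 to 90%; 3 = 50 to 70%; 2 = 30 to 50%; 1 = 10 to 30%; 0 = under 10%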; settings: dose 6.3 g ai/10a, 21st day after application
How it was run: (§1)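 A greenhouse pot test in which wheat and weeds share sand-filled pots; after the soil application, damage is graded against set standards three weeks later.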

China jute (Ab) [2] = experiment: as above; design: scale not given here; settings: dose 6.3 g ai/10a, 21st day after application
How it was run: as §1

slender amaranth (Am) [3] = experiment: as above; design: scale not given here; settings: dose 6.3 g ai/10a, 21st day after application
How it was run: as §1

green foxtail (Se) [4] = experiment: as above; design: scale not given here; settings: dose 6.3 g ai/10a, 21st day after application
How it was run: as §1

[5] = test system: common lambsquarters (Ch); experiment: as above; design: scale not given here; settings: dose 6.3 g ai/10a, 21st day after application
How it was run: as §1

barnyardgrass (Ec) [6] = experiment: Test Example 1: herbicidal effects by paddy field soil treatment; settings: 100 g of the active ingredient per 10 ares, 21st day after the application, index 0-5 of Table 47;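 note: grade of growth control; 5 = at least 90%; 4 = 70 to 90%; 3 = 50 to 70%; 2 = 30 to 50%; 1 = 10 to 30%; 0 = under 10%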
How it was run: (§2)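 Greenhouse pot test in flooded paddy soil, dosed at 100 g a.i. per 10 ares; effect scored on day 21.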

bulrush (Sc) = experiment: as above; settings: 100 g of the active ingredient per 10 ares, 21st day after the application, index 0-5 of Table 47;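 note: grade of growth control; 5 = at least 90%; 4 = 70 to 90%; 3 = 50 to 70%; 2 = 30 to 50%; 1 = 10 to 30%; 0 = under 10%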
How it was run: as §2

monochoria (Mo) = experiment: as above; settings: 100 g of the active ingredient per 10 ares, 21st day after the application, index 0-5 of Table 47;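 note: grade of growth control; 5 = at least 90%; 4 = 70 to 90%; 3 = 50 to 70%; 2 = 30 to 50%; 1 = 10 to 30%; 0 = under 10%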
How it was run: as §2

soybean (Gl) = experiment: Test Example 6: crop plant selectivity by upland field soil treatment (soybean), phytotoxicity; design: scale not given here; settings: dose 6.3 g ai/10a, 21st day after application
Description: (§3) (Test on Crop Plant Selectivity by Upland Field Soil Treatment)
(§4) In a plastic pot (surface area: 600 cm^2) filled with sand, soybean (Gl), Diaitaria ciliaris (Di), green foxtail (Se), Johnsongrass (So), pale smartweed (Po), slender amaranth (Am), common lambsquarters (Ch) and China jute (Ab) were sown and covered with soil. […] The plants were then cultured in a green house, and the evaluation of the herbicidal effects and phytotoxicity was conducted on the 21st day after the application in accordance with the standards as identified in Table 47. Symbol—represents “not tested”.

corn (Ze) = experiment: Test Example 7: crop plant selectivity by upland field soil treatment (corn), phytotoxicity; design: scale not given here; settings: dose 6.3 g ai/10a, 21st day after application
Description: as §3
(§5) In a plastic pot (surface area: 600 cm^2) filled with sand, corn (Ze), green foxtail (Se), pale smartweed (Po), slender amaranth (Am), common lambsquarters (Ch) and China jute (Ab) were sown and covered with soil. […] The plants were then cultured in a green house, and the evaluation of the herbicidal effects and phytotoxicity was conducted on the 21st day after the application in accordance with the standards as identified in Table 47.

pale smartweed (Po) [7] = experiment: Test Example 7: crop plant selectivity by upland field soil treatment (corn), herbicidal effects; design: scale not given here; settings: dose 6.3 g ai/10a, 21st day after application
Description: as §3, §5

China jute (Ab) [8] = experiment: as above; design: scale not given here; settings: dose 6.3 g ai/10a, 21st day after application
Description: as §3, §5

slender amaranth (Am) [9] = experiment: as above; design: scale not given here; settings: dose 6.3 g ai/10a, 21st day after application
Description: as §3, §5

green foxtail (Se) [10] = experiment: as above; design: scale not given here; settings: dose 6.3 g ai/10a, 21st day after application
Description: as §3, §5

[11] = test system: common lambsquarters (Ch); experiment: as above; design: scale not given here; settings: dose 6.3 g ai/10a, 21st day after application
Description: as §3, §5

wheat (Tr) = experiment: Test Example 5: crop plant selectivity by upland field soil treatment (wheat), phytotoxicity; design: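 grade of crop injury; 5 = at least 90%; 4 = 70 to 90%; 3 = 50 to 70%; 2 = 30 to 50%; 1 = 10 to 30%; 0 = under 10%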; settings: dose 6.3 g ai/10a, 21st day after application
How it was run: as §1

pale smartweed (Po) [12] = experiment: Test Example 3: herbicidal effects by upland field foliage treatment; design: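 grade of growth control; 5 = at least 90%; 4 = 70 to 90%; 3 = 50 to 70%; 2 = 30 to 50%; 1 = 10 to 30%; 0 = under 10%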; settings: 100 g active ingredient per 10 ares, evaluated 14th day after treatment
How it was run: (§6)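 Two-week-old greenhouse seedlings, raised in sand-filled pots (120 cm^2) with seed covered by soil, receive a foliar application. Effects are then evaluated by standard grades 14 days later, plants remaining in the greenhouse meanwhile.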

barnyardgrass (Ec) [13] = experiment: as above; design: scale not given here; settings: 100 g active ingredient per 10 ares, evaluated 14th day after treatment
How it was run: as §6

rice flatsedge (Ci) [14] = experiment: as above; design: scale not given here; settings: 100 g active ingredient per 10 ares, evaluated 14th day after treatment
How it was run: as §6

slender amaranth (Am) [15] = experiment: as above; design: scale not given here; settings: 100 g active ingredient per 10 ares, evaluated 14th day after treatment
How it was run: as §6

Diaitaria ciliaris (Di) = experiment: as above; design: scale not given here; settings: 100 g active ingredient per 10 ares, evaluated 14th day after treatment
How it was run: as §6

[16] = test system: common lambsquarters (Ch); experiment: as above; design: scale not given here; settings: 100 g active ingredient per 10 ares, evaluated 14th day after treatment
How it was run: as §6

pale smartweed (Po) [17] = experiment: Test Example 6: crop plant selectivity by upland field soil treatment (soybean), herbicidal effects; design: scale not given here; settings: dose 6.3 g ai/10a, 21st day after application
Description: as §3, §4

China jute (Ab) [18] = experiment: as above; design: scale not given here; settings: dose 6.3 g ai/10a, 21st day after application
Description: as §3, §4

slender amaranth (Am) [19] = experiment: as above; design: scale not given here; settings: dose 6.3 g ai/10a, 21st day after application
Description: as §3, §4

green foxtail (Se) [20] = experiment: as above; design: scale not given here; settings: dose 6.3 g ai/10a, 21st day after application
Description: as §3, §4

[21] = test system: common lambsquarters (Ch); experiment: as above; design: scale not given here; settings: dose 6.3 g ai/10a, 21st day after application
Description: as §3, §4

cotton (Go) = experiment: Test Example 4: crop plant selectivity by upland field soil treatment (cotton), phytotoxicity; design: scale not given here; settings: dose 6.3 g ai/10 a, evaluated 21st day after application
Description: as §3
(§7) In a plastic pot (surface area: 600 cm^2) filled with sand, cotton (Go), Diaitaria ciliaris (Di), green foxtail (Se), pale smartweed (Po), slender amaranth (Am), common lambsquarters (Ch) and China jute (Ab) were sown and covered with soil. […] The plants were then cultured in a green house, and the evaluation of the herbicidal effects and phytotoxicity was conducted on the 21st day after the application in accordance with the standards as identified in Table 47. Symbol—represents “not tested”.

pale smartweed (Po) [22] = experiment: Test Example 4: crop plant selectivity by upland field soil treatment (cotton), herbicidal effects; design: scale not given here; settings: dose 6.3 g ai/10 a, evaluated 21st day after application
Description: as §3, §7

China jute (Ab) [23] = experiment: as above; design: scale not given here; settings: dose 6.3 g ai/10 a, evaluated 21st day after application
Description: as §3, §7

slender amaranth (Am) [24] = experiment: as above; design: scale not given here; settings: dose 6.3 g ai/10 a, evaluated 21st day after application
Description: as §3, §7

green foxtail (Se) [25] = experiment: as above; design: scale not given here; settings: dose 6.3 g ai/10 a, evaluated 21st day after application
Description: as §3, §7

[26] = test system: common lambsquarters (Ch); experiment: as above; design: scale not given here; settings: dose 6.3 g ai/10 a, evaluated 21st day after application
Description: as §3, §7

pale smartweed (Po) [27] = experiment: Test Example 2: herbicidal effects by upland field soil treatment; settings: 100 g of the active ingredient per 10 ares, evaluated on the 21st day after application;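 note: grade of growth control; 5 = at least 90%; 4 = 70 to 90%; 3 = 50 to 70%; 2 = 30 to 50%; 1 = 10 to 30%; 0 = under 10%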
Excerpt: (§8) (Test on Herbicidal Effects by Upland Field Soil Treatment)

Digitaria ciliaris (Di) = experiment: as above; settings: 100 g of the active ingredient per 10 ares, evaluated on the 21st day after application
Excerpt: as §8

barnyardgrass (Ec) [28] = experiment: as above; settings: 100 g of the active ingredient per 10 ares, evaluated on the 21st day after application
Excerpt: as §8

rice flatsedge (Ci) [29] = experiment: as above; settings: 100 g of the active ingredient per 10 ares, evaluated on the 21st day after application
Excerpt: as §8

slender amaranth (Am) [30] = experiment: as above; settings: 100 g of the active ingredient per 10 ares, evaluated on the 21st day after application
Excerpt: as §8

[31] = test system: common lambsquarters (Ch); experiment: as above; settings: 100 g of the active ingredient per 10 ares, evaluated on the 21st day after application
Excerpt: as §8

SMILES	Herbicidal effects Po (pale smartweed (Po) [1])	Herbicidal effects Ab (China jute (Ab) [2])	Herbicidal effects Am (slender amaranth (Am) [3])	Herbicidal effects Se (green foxtail (Se) [4])	Herbicidal effects Ch [5]	Herbicidal effects Ec (barnyardgrass (Ec) [6])	Herbicidal effects Sc (bulrush (Sc))	Herbicidal effects Mo (monochoria (Mo))	Phytotoxicity Gl (soybean (Gl))	Phytotoxicity Ze (corn (Ze))	Herbicidal effects Po (pale smartweed (Po) [7])	Herbicidal effects Ab (China jute (Ab) [8])	Herbicidal effects Am (slender amaranth (Am) [9])	Herbicidal effects Se (green foxtail (Se) [10])	Herbicidal effects Ch [11]	Phytotoxicity Tr (wheat (Tr))	Herbicidal effects Po (pale smartweed (Po) [12])	Herbicidal effects Ec (barnyardgrass (Ec) [13])	Herbicidal effects Ci (rice flatsedge (Ci) [14])	Herbicidal effects Am (slender amaranth (Am) [15])	also measured
C#CCOc1cc(Cl)cc(F)c1-c1ccc(C(F)(F)F)n(C)c1=O [1′-4]	5	5	5	5	5	5	5	5	1	1	5	5	5	5	5	1	5	5	5	5	Herbicidal effects Di (Diaitaria ciliaris (Di)): 5; Herbicidal effects Ch [16]: 5; Herbicidal effects Po (pale smartweed (Po) [17]): 5; Herbicidal effects Ab (China jute (Ab) [18]): 5; Herbicidal effects Am (slender amaranth (Am) [19]): 5; Herbicidal effects Se (green foxtail (Se) [20]): 5; Herbicidal effects Ch [21]: 5; Phytotoxicity Go (cotton (Go)): 0; Herbicidal effects Po (pale smartweed (Po) [22]): 5; Herbicidal effects Ab (China jute (Ab) [23]): 5; Herbicidal effects Am (slender amaranth (Am) [24]): 5; Herbicidal effects Se (green foxtail (Se) [25]): 5; Herbicidal effects Ch [26]: 5; Herbicidal effects Po (pale smartweed (Po) [27]): 5; Herbicidal effects Di (Digitaria ciliaris (Di)): 5; Herbicidal effects Ec (barnyardgrass (Ec) [28]): 5; Herbicidal effects Ci (rice flatsedge (Ci) [29]): 5; Herbicidal effects Am (slender amaranth (Am) [30]): 5; Herbicidal effects Ch [31]: 5
CCCON=Cc1cc(-c2ccc(C(F)(F)F)n(C)c2=O)c(F)cc1Cl [Compound 1-188]	5	5	5	5	5	5	5	5	1	0	5	5	5	5	5	1	5	5	5	5	Herbicidal effects Di (Diaitaria ciliaris (Di)): 5; Herbicidal effects Ch [16]: 5; Herbicidal effects Po (pale smartweed (Po) [17]): 5; Herbicidal effects Ab (China jute (Ab) [18]): 5; Herbicidal effects Am (slender amaranth (Am) [19]): 5; Herbicidal effects Se (green foxtail (Se) [20]): 5; Herbicidal effects Ch [21]: 5; Phytotoxicity Go (cotton (Go)): 0; Herbicidal effects Po (pale smartweed (Po) [22]): 5; Herbicidal effects Ab (China jute (Ab) [23]): 5; Herbicidal effects Am (slender amaranth (Am) [24]): 5; Herbicidal effects Se (green foxtail (Se) [25]): 5; Herbicidal effects Ch [26]: 5; Herbicidal effects Po (pale smartweed (Po) [27]): 5; Herbicidal effects Di (Digitaria ciliaris (Di)): 5; Herbicidal effects Ec (barnyardgrass (Ec) [28]): 5; Herbicidal effects Ci (rice flatsedge (Ci) [29]): 5; Herbicidal effects Am (slender amaranth (Am) [30]): 5; Herbicidal effects Ch [31]: 5
